# Values of other authors, collected in patent publication US20260191834A1, “PHARMACEUTICAL COMBINATION FOR THE TREATMENT OF MULTIPLE MYELOMA, MONOCLONAL GAMMOPATHY OF UNDETERMINED SIGNIFICANCE, AND SMOLDERING MULTIPLE MYELOMA” (priority 2022, published 2026).
smiles,measurement,setting,value
"CC[C@H]1OC(=O)[C@H](C)[C@@H](O[C@H]2C[C@@](C)(OC)[C@@H](O)[C@H](C)O2)[C@H](C)[C@@H](O[C@@H]2O[C@H](C)C[C@H](N(C)C)[C@H]2O)[C@](C)(OC)C[C@@H](C)C(=O)[C@H](C)[C@@H](O)[C@]1(C)O [clarithromycin, Clarithromycin]",efficacy for treating multiple myeloma,as an add-on to chemotherapies,reported and confirmed
same,efficacy for Multiple Myeloma,given alone as a single treatment,no efficacy
